Measured values taken from PubChem BioAssay AID1259408 (Genetic Toxicology Data Bank (GENE-TOX), 2018).
The source made the active and inactive calls. The rule behind the calls is not given here.

System: GENE-TOX genotoxicity assays, various organisms and cells
Assay: GENE-TOX mutagenicity studies
Conditions: for call: Assay Type: In vivo carcinogenicity studies, Assay Code: CCG+
Source text: GENE-TOX provides genetic toxicology (mutagenicity) test data from expert peer review of open scientific literature for more than 3,000 chemicals from the United States Environmental Protection Agency (EPA). GENE-TOX was established to select assay systems for evaluation, review data in the scientific literature, and recommend proper testing protocols and evaluation procedures for these systems.
GENE-TOX covers the years 1991 - 1998. It is no longer updated.
This is an archive assay for GENE-TOX mutagenicity studies.

[1] = Species/Cell Type: Salmonella typhimurium (one or more of the five standard strains: TA98, TA100, TA1535, TA1537, and TA1538), Assay Type: Histidine reverse gene mutation, Ames assay, Assay Code: SAL+*, Activation: With metabolic activation, Evaluation Type: Evaluation A (Pre-1980)
[2] = Species/Cell Type: Nonhuman, Evaluation Type: Evaluation A (Pre-1980)
[3] = Species/Cell Type: Chinese hamster lung (V79) cells, Assay Type: Forward gene mutation at the HPRT or ouabain locus, Assay Code: V79+, Evaluation Type: Evaluation A (Pre-1980)
[4] = Species/Cell Type: Escherichia coli polA (W3119 vs P3478), Assay Type: Rec-assay, DNA effects (bacterial DNA repair), Assay Code: RE1+, Evaluation Type: Evaluation A (Pre-1980)
[5] = Species/Cell Type: Human, Assay Type: Sister-chromatid exchange (SCE) in vitro, Assay Code: SC1+, Evaluation Type: Evaluation B (Post-1980)
[6] = Species/Cell Type: Neurospora crassa, Assay Type: Reverse gene mutation, Assay Code: NER+, Evaluation Type: Evaluation A (Pre-1980)
[7] = Species/Cell Type: Saccharomyces cerevisiae, Assay Type: Mitotic recombination or gene conversion, Assay Code: YEC+, Evaluation Type: Evaluation A (Pre-1980)
[8] = Species/Cell Type: Salmonella typhimurium (one or more of the five standard strains: TA98, TA100, TA1535, TA1537, and TA1538), Assay Type: Histidine reverse gene mutation, Ames assay, Assay Code: SAL+, Evaluation Type: Evaluation A (Pre-1980)
[9] = Species/Cell Type: Nonhuman, Assay Type: Sister-chromatid exchange (SCE) in vitro, Assay Code: SC2+D, Dose Response: With dose response, Evaluation Type: Evaluation B (Post-1980)
[10] = Species/Cell Type: Salmonella typhimurium, Assay Type: Forward and reverse gene mutation, body fluid assay, Assay Code: BFU-, Evaluation Type: Evaluation A (Pre-1980)

Which results are given for CN(C)CCCN1c2ccccc2CCc2ccccc21?
mutagenic call (Species/Cell Type: Human, Assay Type: Sister-chromatid exchange (SCE) in vitro, Assay Code: SC1T, Evaluation Type: Evaluation B (Post-1980)): no conclusion; mutagenic call (Species/Cell Type: Rodents, Sex: Male, Assay Type: Dominant lethal test, Assay Code: DLT-, Evaluation Type: Evaluation A (Pre-1980)): inactive; negative

With CC(=O)OCC[C@H](C=O)c1c(O)cc2c(c1O)C(=O)c1c(O)cc(O)cc1C2=O as the compound, how does the mutagenic call [1] read?
Its mutagenic call is “active; positive”.

Which mutagenic call (Species/Cell Type: Salmonella typhimurium (one or more of the five standard strains: TA98, TA100, TA1535, TA1537, and TA1538), Assay Type: Histidine reverse gene mutation, Ames assay, Assay Code: SALT, Evaluation Type: Evaluation A (Pre-1980)) does the source give for CSc1ccc([C@H](O)[C@H](CO)NC(=O)C(Cl)Cl)cc1 here?
Its mutagenic call is “no conclusion”.

For CCN(Cc1cccc(S(=O)(=O)[O-])c1)c1ccc(C(=C2C=CC(=[N+](C)C)C=C2)c2ccc(N(CC)Cc3cccc(S(=O)(=O)O)c3)cc2)cc1, which mutagenic call (Species/Cell Type: Bacillus subtilis (H17 vs M45), Assay Type: Rec-assay, spot test, DNA effects (bacterial DNA repair), Assay Code: REWT, Evaluation Type: Evaluation A (Pre-1980)) is on record?
The mutagenic call was “no conclusion”.

What about the mutagenic call (Species/Cell Type: Bacillus subtilis (H17 vs M45T), Assay Type: Rec-assay, spot test, DNA effects (bacterial DNA repair), Assay Code: REXT, Evaluation Type: Evaluation A (Pre-1980)) of the same compound?
The mutagenic call was “no conclusion”.

And the call [2]?
The call was “active; positive”.

And the mutagenic call (Species/Cell Type: Salmonella typhimurium (one or more of the five standard strains: TA98, TA100, TA1535, TA1537, and TA1538), Assay Type: Histidine reverse gene mutation, Ames assay, Assay Code: SAL-, Evaluation Type: Evaluation A (Pre-1980))?
The mutagenic call was “inactive; negative”.

Which mutagenic call (Species/Cell Type: Fischer rat embryo (RLV/1706) cells, Assay Type: Cell transformation, viral enhanced, Assay Code: CTR-, Evaluation Type: Evaluation A (Pre-1980)) does the source give for CCCCCc1cc(O)c2c(c1)OC(C)(C)c1ccc(C)cc1-2 here?
The mutagenic call was “inactive; negative”.

What about the mutagenic call (Species/Cell Type: Human lymphocytes, Assay Type: Sister-chromatid exchange (SCE) in vivo, Assay Code: SCY+, Evaluation Type: Evaluation B (Post-1980)) of the same compound?
The mutagenic call was “active; positive”.

And the mutagenic call (Species/Cell Type: Mammalian polychromatic erythrocytes, Assay Type: Micronucleus test, chromosome aberrations, Assay Code: MNT+, Evaluation Type: Evaluation B (Post-1980))?
The mutagenic call was “active; positive”.

What about the mutagenic call (Species/Cell Type: Mouse, Sex: Male, Assay Type: Sperm morphology, Assay Code: SPI+, Evaluation Type: Evaluation A (Pre-1980)) of the same compound?
The mutagenic call was “active; positive”.

How did the mutagenic call (Species/Cell Type: Mammalian polychromatic erythrocytes, Assay Type: Micronucleus test, chromosome aberrations, Assay Code: MNT+U, Dose Response: Unconfirmed positive response, Evaluation Type: Evaluation B (Post-1980)) turn out when O=c1c(O)c(-c2ccccc2)oc2cc(O)cc(O)c12 was run?
The mutagenic call was “active; positive”.

And the mutagenic call (Species/Cell Type: Nonhuman, Assay Type: Sister-chromatid exchange (SCE) in vitro, Assay Code: SC2+*, Activation: With metabolic activation, Evaluation Type: Evaluation B (Post-1980))?
Its mutagenic call is “active; positive”.

CC(=O)N(O)c1ccc2c(c1)Cc1ccccc1-2 was tested. Which mutagenic call [3] did it give?
Its mutagenic call is “active; positive”.

What about the mutagenic call (Species/Cell Type: Chinese hamster ovary (CHO) cells, Assay Type: Forward gene mutation at the HPRT locus, Assay Code: CHO+, Evaluation Type: Evaluation B (Post-1980)) of the same compound?
The mutagenic call was “active; positive”.

And the mutagenic call (Species/Cell Type: Drosophila melanogaster, Assay Type: Sex-linked recessive lethal gene mutation, Assay Code: SRLT, Evaluation Type: Evaluation A (Pre-1980))?
Its mutagenic call is “no conclusion”.

What about the mutagenic call [4] of the same compound?
The mutagenic call was “active; positive”.

And the mutagenic call (Species/Cell Type: Fischer rat embryo (RLV/1706) cells, Assay Type: Cell transformation, viral enhanced, Assay Code: CTR+, Evaluation Type: Evaluation A (Pre-1980))?
Its mutagenic call is “active; positive”.

What about the mutagenic call (Species/Cell Type: Human diploid fibroblasts, Assay Type: Unscheduled DNA synthesis (UDS) in vitro, DNA effects, Assay Code: UDH+D, Dose Response: With dose response, Evaluation Type: Evaluation A (Pre-1980)) of the same compound?
Its mutagenic call is “active; positive”.

What about the mutagenic call (Species/Cell Type: Human lymphocytes, Assay Type: Sister-chromatid exchange (SCE) in vitro, Assay Code: SCLT, Evaluation Type: Evaluation A (Pre-1980)) of the same compound?
Its mutagenic call is “no conclusion”.

What about the mutagenic call [5] of the same compound?
The mutagenic call was “active; positive”.

And the mutagenic call (Species/Cell Type: Human, Assay Type: Sister-chromatid exchange (SCE) in vitro, Assay Code: SC1T, Evaluation Type: Evaluation A (Pre-1980))?
The mutagenic call was “no conclusion”.

What about the mutagenic call (Species/Cell Type: Mouse (BALB/c-3T3) cells, Assay Type: Cell transformation, Assay Code: CTB+D, Dose Response: With dose response, Evaluation Type: Evaluation A (Pre-1980)) of the same compound?
Its mutagenic call is “active; positive”.

What about the mutagenic call (Species/Cell Type: Mouse embryo (AKR/ME) cells, Assay Type: Cell transformation, Assay Code: CTK-, Evaluation Type: Evaluation A (Pre-1980)) of the same compound?
The mutagenic call was “inactive; negative”.

What about the mutagenic call [6] of the same compound?
The mutagenic call was “active; positive”.

And the call [2]?
The call was “active; positive”.

What about the mutagenic call (Species/Cell Type: Nonhuman, Assay Type: Sister-chromatid exchange (SCE) in vitro, Assay Code: SC2+D, Dose Response: With dose response, Evaluation Type: Evaluation A (Pre-1980)) of the same compound?
Its mutagenic call is “active; positive”.

What about the mutagenic call (Species/Cell Type: Rat primary hepatocytes, Assay Type: Unscheduled DNA synthesis (UDS) in vitro, DNA effects, Assay Code: UDP+, Evaluation Type: Evaluation A (Pre-1980)) of the same compound?
Its mutagenic call is “active; positive”.

And the mutagenic call [7]?
The mutagenic call was “active; positive”.

What about the mutagenic call [8] of the same compound?
Its mutagenic call is “active; positive”.

What about the mutagenic call (Species/Cell Type: Syrian hamster embryo (SHE) cells, Assay Type: Cell transformation, clonal assay, Assay Code: CTC+D, Dose Response: With dose response, Evaluation Type: Evaluation A (Pre-1980)) of the same compound?
Its mutagenic call is “active; positive”.

With CCCC(C)(COC(N)=O)COC(N)=O as the compound, how does the mutagenic call (Species/Cell Type: Drosophila melanogaster, Assay Type: Aneuploidy, partial sex chromosome loss, chromosome aberrations, Assay Code: DAPT, Evaluation Type: Evaluation A (Pre-1980)) read?
The mutagenic call was “no conclusion”.

What about the mutagenic call (Species/Cell Type: Drosophila melanogaster, Assay Type: Aneuploidy, whole sex chromosome loss, chromosome aberrations, Assay Code: DAC-M, Evaluation Type: Evaluation A (Pre-1980)) of the same compound?
Its mutagenic call is “inactive; negative”.

What about the mutagenic call (Species/Cell Type: Drosophila melanogaster, Assay Type: Sex-linked recessive lethal gene mutation, Assay Code: SRL-, Evaluation Type: Evaluation A (Pre-1980)) of the same compound?
Its mutagenic call is “inactive; negative”.

How did the mutagenic call [1] turn out when c1ccc2c(c1)cnc1ccccc12 was run?
Its mutagenic call is “active; positive”.

Which results are given for CN(C)C(=O)Cl?
mutagenic call [4]: active; positive; mutagenic call (Species/Cell Type: Human diploid fibroblasts, Assay Type: Unscheduled DNA synthesis (UDS) in vitro, DNA effects, Assay Code: UDH-, Evaluation Type: Evaluation A (Pre-1980)): inactive; negative; mutagenic call (Species/Cell Type: Mammalian polychromatic erythrocytes, Assay Type: Micronucleus test, chromosome aberrations, Assay Code: MNT+, Evaluation Type: Evaluation A (Pre-1980)): active; positive; call [2]: active; positive; mutagenic call [9]: active; positive; mutagenic call (Species/Cell Type: Saccharomyces cerevisiae, Assay Type: Mitotic recombination or gene conversion, Assay Code: YEH+, Evaluation Type: Evaluation A (Pre-1980)): active; positive; mutagenic call [8]: active; positive; mutagenic call (Species/Cell Type: Salmonella typhimurium, Assay Type: Forward and reverse gene mutation, host-mediated assay, Assay Code: HMA+, Evaluation Type: Evaluation A (Pre-1980)): active; positive; mutagenic call (Species/Cell Type: Syrian hamster embryo (SHE) cells, Assay Type: Cell transformation, clonal assay, Assay Code: CTC+, Evaluation Type: Evaluation A (Pre-1980)): active; positive

CC(=O)Nc1ccc2c(c1)Cc1cc(NC(C)=O)ccc1-2 was tested. Which mutagenic call [8] did it give?
Its mutagenic call is “active; positive”.

How did the mutagenic call (Species/Cell Type: Human, Assay Type: Sister-chromatid exchange (SCE) in vitro, Assay Code: SC1-, Evaluation Type: Evaluation B (Post-1980)) turn out when OC[C@@H](O)C(O)[C@@H](O)CO (some centres not stated) was run?
Its mutagenic call is “inactive; negative”.

What about the mutagenic call [10] of the same compound?
Its mutagenic call is “inactive; negative”.

And the mutagenic call (Species/Cell Type: Salmonella typhimurium, Assay Type: Forward and reverse gene mutation, host-mediated assay, Assay Code: HMA-, Evaluation Type: Evaluation A (Pre-1980))?
Its mutagenic call is “inactive; negative”.

Which mutagenic call (Species/Cell Type: Mammalian polychromatic erythrocytes, Assay Type: Micronucleus test, chromosome aberrations, Assay Code: MNTT, Evaluation Type: Evaluation B (Post-1980)) does the source give for CC(C)NCC(O)COc1cccc2[nH]ccc12 (configuration not stated) here?
The mutagenic call was “no conclusion”.

With ClCC(Br)CBr (configuration not stated) as the compound, how does the mutagenic call [4] read?
The mutagenic call was “active; positive”.

What about the mutagenic call (Species/Cell Type: Human, Sex: Male, Assay Type: Sperm morphology, Assay Code: SPH+, Evaluation Type: Evaluation A (Pre-1980)) of the same compound?
The mutagenic call was “active; positive”.

And the call [2]?
The call was “active; positive”.

And the mutagenic call [9]?
The mutagenic call was “active; positive”.

And the mutagenic call [8]?
The mutagenic call was “active; positive”.

And the mutagenic call [10]?
Its mutagenic call is “inactive; negative”.

For C=CCN(N=O)C(N)=O, which mutagenic call (Species/Cell Type: Arabidopsis species, Assay Type: Gene mutation, Assay Code: ARM+D, Dose Response: With dose response, Evaluation Type: Evaluation A (Pre-1980)) is on record?
The mutagenic call was “active; positive”.

And the mutagenic call [7]?
The mutagenic call was “active; positive”.

O=[N+]([O-])c1ccc(N=Nc2c(O)ccc3ccccc23)c(Cl)c1 was tested. Which mutagenic call [1] did it give?
Its mutagenic call is “active; positive”.

With [Cl-].[Cl-].[NH2-].[NH2-].[NH2-].[NH2-].[Pt+2] as the compound, how does the mutagenic call (Species/Cell Type: Chinese hamster ovary (CHO) cells, Assay Type: Forward gene mutation at the HPRT locus, Assay Code: CHOT, Evaluation Type: Evaluation B (Post-1980)) read?
Its mutagenic call is “no conclusion”.

For [Be]=[O], which call [2] is on record?
Its call is “active; positive”.

Which mutagenic call [3] does the source give for CC(C)NC(=O)/C=C/c1ccc([N+](=O)[O-])o1 here?
Its mutagenic call is “active; positive”.

What about the mutagenic call (Species/Cell Type: Neurospora crassa, Assay Type: Forward gene mutation, Assay Code: NEF+, Evaluation Type: Evaluation A (Pre-1980)) of the same compound?
The mutagenic call was “active; positive”.

What about the mutagenic call [6] of the same compound?
The mutagenic call was “active; positive”.

And the mutagenic call [7]?
Its mutagenic call is “active; positive”.

And the mutagenic call [8]?
Its mutagenic call is “active; positive”.

For ONc1ccccc1, which mutagenic call [5] is on record?
The mutagenic call was “active; positive”.
